Assay results from patent US20240066027A1 (DOMAIN THERAPEUTICS, priority 2020, published 2024).

What was measured:
[1] = molecular target: T1, human PAR-2 (hPAR-2) receptor expressed in HEK-293 T cells in an endogenous manner (Homo sapiens, UniProt P55085); test: In vitro human PAR-2 functional antagonist activity using calcium assays (Fluo4AM, FLIPR Tetra); format: cell-based; details: HEK-293 T cells stimulated by an EC80 of the 2-Furoyl-LIGRLO-NH2 peptide after 10 min incubation with compound; 20 concentrations, duplicate, two independent experiments
T1 construct: human PAR-2 (hPAR-2) receptor expressed in HEK-293 T cells in an endogenous manner; endogenous in cells; host or cells: HEK-293 T cells
T1 sequence (P55085 26-397): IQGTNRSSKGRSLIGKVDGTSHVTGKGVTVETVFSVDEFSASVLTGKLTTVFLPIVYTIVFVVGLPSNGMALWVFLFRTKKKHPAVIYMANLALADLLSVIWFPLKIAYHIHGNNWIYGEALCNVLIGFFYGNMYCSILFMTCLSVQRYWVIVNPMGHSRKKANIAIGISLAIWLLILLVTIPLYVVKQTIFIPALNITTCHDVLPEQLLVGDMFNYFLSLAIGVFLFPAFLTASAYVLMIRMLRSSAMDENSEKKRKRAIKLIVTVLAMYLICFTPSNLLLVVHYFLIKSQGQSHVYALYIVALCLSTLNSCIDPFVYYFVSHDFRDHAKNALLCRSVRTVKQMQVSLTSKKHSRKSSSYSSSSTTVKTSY
In short: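 Antagonist activity was taken as the decrease in the calcium response to an EC80 of 2-Furoyl-LIGRLO-NH2, measured over 5 min. The agonist was added after a 10 min compound-alone step on the same plate. The HEK-293 T cells express PAR-2 endogenously and were loaded with 1 μM Fluo4AM. Signals were referenced to buffer and EC80-alone controls.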

| Structure (SMILES) | melting point [°C] | IC50 [1] [µM] |
| --- | --- | --- |
| CC(C)Cn1cc(N2CCCCC2)c2ccc(C(=O)N3CCNC(=O)C3(C)C)nc21 [Example 82, 4-(1-isobutyl-3-(piperidin-1-yl)-1H-pyrrolo[2,3-b]pyridine-6-carbonyl)-3,3-dimethylpiperazin-2-one] | 233 to 237 | 0.02 to 10 |
| CC(C)Cn1cc(C2CCCCC2)c2ccc(C(=O)N3CCNC(=O)C3(C)C)nc21 [Example 48, 4-(3-cyclohexyl-1-isobutyl-1H-pyrrolo[2,3-b]pyridine-6-carbonyl)-3,3-dimethylpiperazin-2-one] | 226 to 229 | 0.02 to 10 |
| CC(C)Cn1cc(-c2ccc(C#N)nc2)c2ccc(C(=O)N3CCNC(=O)C3(C)C)nc21 [Example 110, 5-(6-(2,2-dimethyl-3-oxopiperazine-1-carbonyl)-1-isobutyl-1H-pyrrolo[2,3-b]pyridin-3-yl)picolinonitrile] | 260 to 265 | 0.02 to 10 |
| CC(C)Cn1cc(-c2ccc(F)cc2)c2ccc(C(=O)N3CCNC(=O)C3(C)C)nc21 [Example 56, 4-[1-isobutyl-3-[4-fluorophenyl]pyrrolo[2,3-b]pyridine-6-carbonyl]-3,3-dimethyl-piperazin-2-one] | 192 to 194 | 0.02 to 10 |
| CC(C)Cc1nn(-c2ccc(C(F)(F)F)nc2)c2ccc(C(=O)N3CCNC(=O)C3(C)C)nc12 [Example 66, 4-(3-isobutyl-1-(6-(trifluoromethyl)pyridin-3-yl)-1H-pyrazolo[4,3-b]pyridine-5-carbonyl)-3,3-dimethylpiperazin-2-one] | 185 to 190 | > 10 |
| CC(C)Cn1cc(C2CCOCC2)c2ccc(C(=O)N3CCNC(=O)C3(C)C)nc21 [Example 46, 4-(1-isobutyl-3-(tetrahydro-2H-pyran-4-yl)-1H-pyrrolo[2,3-b]pyridine-6-carbonyl)-3,3-dimethylpiperazin-2-one] | > 250 | > 10 |
| CC(C)Cn1cc(C2=CCOCC2)c2ccc(C(=O)N3CCNC(=O)C3(C)C)nc21 [Example 45, 4-(3-(3,6-dihydro-2H-pyran-4-yl)-1-isobutyl-1H-pyrrolo[2,3-b]pyridine-6-carbonyl)-3,3-dimethylpiperazin-2-one] | 225 to 230 | > 10 |
| COc1ccc(-n2nc(CC(C)C)c3nc(C(=O)N4CCNC(=O)C4(C)C)ccc32)cc1 [Example 93, 4-(3-isobutyl-1-(4-methoxyphenyl)-1H-pyrazolo[4,3-b]pyridine-5-carbonyl)-3,3-dimethylpiperazin-2-one] | 182 to 185 | > 10 |
| CC(C)Cn1cc(-c2cc(F)cc(F)c2)c2ccc(C(=O)N3CCNC(=O)C3(C)C)nc21 [Example 108, 4-(3-(3,5-difluorophenyl)-1-isobutyl-1H-pyrrolo[2,3-b]pyridine-6-carbonyl)-3,3-dimethylpiperazin-2-one] | 165 to 170 | 0.02 to 10 |
| CC(C)Cn1cc(C2=CCNCC2)c2ccc(C(=O)N3CCNC(=O)C3(C)C)nc21 [Example 47, 4-(3-(1,2,3,6-tetrahydropyridin-4-yl)-1-isobutyl-1H-pyrrolo[2,3-b]pyridine-6-carbonyl)-3,3-dimethylpiperazin-2-one] | 140 to 145 | > 10 |
| CC(C)Cn1cc(-c2cncnc2)c2ccc(C(=O)N3CCNC(=O)C3(C)C)nc21 [Example 36, 4-(1-isobutyl-3-(pyrimidin-5-yl)-1H-pyrrolo[2,3-b]pyridine-6-carbonyl)-3,3-dimethylpiperazin-2-one] | 185 to 190 | > 10 |
| CC(C)Cn1cc(-c2ccc(C(F)(F)F)nc2)c2ccc(C(=O)N3CCNC(=O)C3(C)C)nc21 [Example 43, 4-(1-isobutyl-3-(6-(trifluoromethyl)pyridin-3-yl)-1H-pyrrolo[2,3-b]pyridine-6-carbonyl)-3,3-dimethylpiperazin-2-one] | > 250 | 0.02 to 10 |
| Cc1ccc(-c2cn(CC(C)C)c3nc(C(=O)N4CCNC(=O)C4(C)C)ccc23)cc1 [Example 51, 4-[1-isobutyl-3-(p-tolyl)pyrrolo[2,3-b]pyridine-6-carbonyl]-3,3-dimethyl-piperazin-2-one] | 207 to 212 | 0.02 to 10 |
| COc1cc(-n2nc(C(C)(C)C)c3nc(C(=O)N4CCN(c5cc(C)c(C(=O)O)c(C)n5)CC4(C)C)ccc32)ccc1Cl [Example 60, 6-(4-(3-(tert-butyl)-1-(4-chloro-3-methoxyphenyl)-1H-pyrazolo[4,3-b]pyridine-5-carbonyl)-3,3-dimethylpiperazin-1-yl)-2,4-dimethylnicotinic acid] | 127 to 139 | > 10 |
| COc1ccc(-c2cn(CC(C)C)c3nc(C(=O)N4CCNC(=O)C4(C)C)ccc23)cc1 [Example 111, 4-(1-isobutyl-3-(4-methoxyphenyl)-1H-pyrrolo[2,3-b]pyridine-6-carbonyl)-3,3-dimethylpiperazin-2-one] | 195 to 200 | 0.02 to 10 |
| CC(C)Cn1cc(-c2ccc(C(F)(F)F)cc2)c2ccc(C(=O)N3CCNC(=O)C3(C)C)nc21 [Example 55, 4-[1-isobutyl-3-[4-(trifluoromethyl)phenyl]pyrrolo[2,3-b]pyridine-6-carbonyl]-3,3-dimethyl-piperazin-2-one] | 216 to 218 | 0.02 to 10 |
| Cc1cc(N2CCCN(C(=O)c3ccc4c(-c5ccc(Cl)c(F)c5)cn(C(C)(C)C)c4n3)CC2)nc(C)c1C(=O)O [Example 127, 6-(4-(1-(tert-butyl)-3-(4-chloro-3-fluorophenyl)-1H-pyrrolo[2,3-b]pyridine-6-carbonyl)-1,4-diazepan-1-yl)-2,4-dimethylnicotinic acid] | – | 0.02 to 10 |
| COCC(C)(C)n1cc(-c2ccc(Cl)c(F)c2)c2ccc(C(=O)N3CCNC(=O)C3(C)C)nc21 [Example 151, 4-(3-(4-chloro-3-fluorophenyl)-1-(1-methoxy-2-methylpropan-2-yl)-1H-pyrrolo[2,3-b]pyridine-6-carbonyl)-3,3-dimethylpiperazin-2-one] | – | < 0.02 |
| CC(C)Cn1cc(-c2ccccc2F)c2ccc(C(=O)N3CCNC(=O)C3(C)C)nc21 [Example 113, 4-(3-(2-fluorophenyl)-1-isobutyl-1H-pyrrolo[2,3-b]pyridine-6-carbonyl)-3,3-dimethylpiperazin-2-one] | – | 0.02 to 10 |
| COCCn1cc(-c2ccc(Cl)c(F)c2)c2ccc(C(=O)N3CCN(c4cc(C)c(C(=O)O)c(C)n4)CC3(C)C)nc21 [Example 134, 6-(4-(3-(4-chloro-3-fluorophenyl)-1-(2-methoxyethyl)-1H-pyrrolo[2,3-b]pyridine-6-carbonyl)-3,3-dimethylpiperazin-1-yl)-2,4-dimethyinicotinic acid] | – | < 0.02 |
| Cc1cc(N2CCN(C(=O)c3ccc4c(-c5ccc(Cl)c(F)c5)cn(C[C@@H]5CCCO5)c4n3)C(C)(C)C2)nc(C)c1C(=O)O [Example 211, (S)-6-(4-(3-(4-chloro-3-fluorophenyl)-1-((tetrahydrofuran-2-yl)methyl)-1H-pyrrolo[2,3-b]pyridine-6-carbonyl)-3,3-dimethylpiperazin-1-yl)-2,4-dimethylnicotinic acid] | – | < 0.02 |
| Cc1cc(N2CCN(C(=O)c3ccc4c(-c5ccc(Cl)c(F)c5)cn(C5CCOCC5)c4n3)C(C)(C)C2)nc(C)c1C(=O)O [Example 98] | – | < 0.02 |
| CC1(C)C(=O)NCCN1C(=O)c1ccc2c(-c3ccc(Cl)c(F)c3)cn(CCN3CCCC3=O)c2n1 [Example 41, 4-(3-(4-chloro-3-fluorophenyl)-1-(2-(2-oxopyrrolidin-1-yl)ethyl)-1H-pyrrolo[2,3-b]pyridine-6-carbonyl)-3,3-dimethylpiperazin-2-one] | – | 0.02 to 10 |
| CC[C@@H](C)n1cc(-c2ccc(Cl)c(F)c2)c2ccc(C(=O)N3CCN(c4cc(C)c(C(=O)O)c(C)n4)CC3(C)C)nc21 [Example 165, (R)-6-(4-(1-(sec-butyl)-3-(4-chloro-3-fluorophenyl)-1H-pyrrolo[2,3-b]pyridine-6-carbonyl)-3,3-dimethylpiperazin-1-yl)-2,4-dimethylnicotinic acid] | – | < 0.02 |
| Cc1cc(N2CCN(C(=O)c3ccc4c(-c5ccc(Cl)c(F)c5)nn(C(C)(C)C)c4n3)C(C)(C)C2)nc(C)c1C(=O)O [Example 87, 6-(4-(1-(tert-butyl)-3-(4-chloro-3-fluorophenyl)-1H-pyrazolo[3,4-b]pyridine-6-carbonyl)-3,3-dimethylpiperazin-1-yl)-2,4-dimethylnicotinic acid] | – | 0.02 to 10 |
| COC(=O)CN1CCN(C(=O)c2ccc3c(-c4ccc(Cl)c(F)c4)cn(C(C)(C)C)c3n2)C(C)(C)C1=O [Example 3, methyl 2-(4-(1-(tert-butyl)-3-(4-chloro-3-fluorophenyl)-1H-pyrrolo[2,3-b]pyridine-6-carbonyl)-3,3-dimethyl-2-oxopiperazin-1-yl)acetate] | – | < 0.02 |
| CC(C)(C)n1cc(-c2ccc(Cl)c(F)c2)c2ccc(C(=O)N3CCC4(CCC(=O)N4)CC3)nc21 [Example 202, 8-(1-(tert-butyl)-3-(4-chloro-3-fluorophenyl)-1H-pyrrolo[2,3-b]pyridine-6-carbonyl)-1,8-diazaspiro[4.5]decan-2-one] | – | 0.02 to 10 |
